Assay results: EPA's ToxValDB 9.5

Experiments:
Rattus norvegicus = conditions: developmental; duration: 14 days; oral; gavage; M/F; Crl:CD(SD); generation: F1; F1: Developmental: Bone: Skeletal Malformation + F1: Developmental: Whole Body: Nursing Behavior + F1: Developmental: Whole Body: Pup Weight…
[1] = developmental, duration: 54 days, oral, gavage, M/F, CD1, generation: F1, F1: Developmental: Eye: Eye Opening + F1: Developmental: Liver: Liver, Discolored + F1: Developmental: Whole Body: Fetus Or Pup/Neonate, …
[2] = reproduction developmental, duration: 14 days, oral, gavage, F, Crl:CD-1 (ICR) BR, generation: P0, P0: Blood: Hematocrit (HCT) + P0: Blood: Hemoglobin (HGB) + P0: Blood: Lymphocyte + P0: Blood: Monocytes + P0: Blood: Neutrophils + P0: …
[3] = reproduction developmental, duration: 14 days, oral, gavage, F, Crl:CD-1 (ICR) BR, generation: P0, P0: Liver: Hepatocellular Hypertrophy
[4] = reproduction developmental, duration: 14 days, oral, gavage, M/F, Crl:CD-1 (ICR) BR, generation: P0, P0: Eye: Eye Opening + P0: Whole Body: Lactation Index + P0: Whole Body: Pup Mortality + P0: Whole Body: Pup Weight Relative to Litter
[5] = reproduction developmental, duration: 54 days, oral, gavage, F, CD1, generation: P0, P0: Developmental: Uterus: Implantation + P0: Developmental: Whole Body: No. Male Pups per No. of Pups Sexed
[6] = reproduction developmental, duration: 54 days, oral, gavage, F, CD1, generation: P0, P0: Developmental: Uterus: Implantation + P0: Developmental: Whole Body: No. Male Pups per No. of Pups Sexed + P0: Reproductive: Whole Body…
[7] = reproduction developmental, duration: 109 days, oral, gavage, M, Crl:CD-1 (ICR) BR, generation: P0, P0: Blood: Hematocrit (HCT) + P0: Blood: Hemoglobin (HGB) + P0: Blood: Sorbitol Dehydrogenase (SDH), Blood + P0: Kidney: Blood Urea Nitrogen…
[8] = reproduction developmental, duration: 109 days, oral, gavage, M, Crl:CD-1 (ICR) BR, generation: P0, P0: Hepatic: Liver: Alanine Aminotransferase (ALT), Blood + P0: Hepatic: Liver: Alkaline Phosphatase (ALP), Blood + P0: Hepatic: Liver: …
[9] = reproduction developmental, duration: 109 days, oral, gavage, M, Crl:CD-1 (ICR) BR, generation: P0, P0: Liver: Hepatocellular Hypertrophy
[10] = reproduction developmental, multiple, M, Crl:CD-1 (ICR) BR, generation: F1, F1: Reproductive: Prepuce: Preputial Separation + F1: Whole Body: Whole Body: Body Weight Change + F1: Whole Body: Whole Body: Feed …
[11] = reproduction developmental, multiple, M, Crl:CD-1 (ICR) BR, generation: F1, F1: Whole Body: Whole Body: Body Weight Change + F1: Whole Body: Whole Body: Feed Consumption, Absolute
[12] = reproduction developmental, oral, gavage, F, CD1, generation: P0, P0: Blood: Hematocrit (HCT) + P0: Blood: Hemoglobin (HGB) + P0: Blood: Lymphocyte + P0: Blood: Monocytes + P0: Blood: Neutrophils + P0: …
[13] = reproduction developmental, oral, gavage, F, CD1, generation: P0, P0: Liver: Alanine Aminotransferase (ALT), Blood + P0: Liver: Alkaline Phosphatase (ALP), Blood + P0: Liver: Aspartate Aminotransferase (AST…
[14] = reproduction developmental, oral, gavage, F, Crl:CD-1 (ICR) BR, generation: P0, P0: Hepatic: Liver: Alanine Aminotransferase (ALT), Blood + P0: Hepatic: Liver: Alkaline Phosphatase (ALP), Blood + P0: Hepatic: Liver: …
[15] = reproduction developmental, oral, gavage, M, CD1, generation: P0, P0: Blood: Cholesterol (CHOL), Total + P0: Blood: Hematocrit (HCT) + P0: Blood: Hemoglobin (HGB) + P0: Blood: Lymphocyte + P0: Blood: …

`OCCC(F)(F)C(F)(F)C(F)(F)C(F)(F)C(F)(F)C(F)(F)F` [2-(Perfluorohexyl)ethanol] was tested. Which LOAEL (Mus musculus; [1]) did it give?
Its LOAEL is 120 mg/kg-day.

And the NOAEL (Mus musculus; [1])?
Its NOAEL is 25 mg/kg-day.

And the NEL (Mus musculus; developmental, oral, gavage, M/F, CD1, generation: F1, F1: Eye: Eye Opening + F1: Liver: Liver, Discolored + F1: Prepuce or Vagina: Preputial Separation or Vaginal Patency + F1: Whole Body: Fetus…)?
The NEL was 25 mg/kg-day.

What about the LEL (Mus musculus; developmental, oral, gavage, M/F, CD1, generation: F1, F1: Eye: Eye Opening + F1: Liver: Liver, Discolored + F1: Whole Body: Fetus Or Pup/Neonate, Small + F1: Whole Body: Lactation Index + F1: …) of the same molecule?
Its LEL is 100 mg/kg-day.

And the LEL (Mus musculus; [2])?
Its LEL is 100 mg/kg-day.

And the NEL (Mus musculus; [2])?
The NEL was 25 mg/kg-day.

What about the NEL (Mus musculus; reproduction developmental, duration: 14 days, oral, gavage, F, Crl:CD-1 (ICR) BR, generation: P0, P0: Kidney: Kidney Weight, Absolute + P0: Liver: Liver Weight, Absolute + P0: Liver: Total Bilirubin (TBILI), Blood + P0: Liver: Total …) of the same molecule?
Its NEL is 100 mg/kg-day.

And the LEL (Mus musculus; [3])?
The LEL was 5 mg/kg-day.

What about the NEL (Mus musculus; [3]) of the same molecule?
The NEL was 1 mg/kg-day.

And the LEL (Mus musculus; [4])?
The LEL was 100 mg/kg-day.

What about the NEL (Mus musculus; [4]) of the same molecule?
Its NEL is 25 mg/kg-day.

What about the NEL (Mus musculus; reproduction developmental, duration: 14 days, oral, gavage, M/F, Crl:CD-1 (ICR) BR, generation: P0, P0: Whole Body: Live Pups Born + P0: Whole Body: Male Pups per Pups Sexed + P0: Whole Body: Viability Index) of the same molecule?
Its NEL is 100 mg/kg-day.

And the NEL (Mus musculus; reproduction developmental, duration: 42 days, multiple, F, Crl:CD-1 (ICR) BR, generation: P0, P0: Vagina: Vaginal Patency + P0: Whole Body: Body Weight Change + P0: Whole Body: Feed Consumption, Absolute)?
The NEL was 25 mg/kg-day.

And the NEL (Mus musculus; reproduction developmental, duration: 42 days, multiple, M, Crl:CD-1 (ICR) BR, generation: P0, P0: Prepuce: Preputial Separation + P0: Whole Body: Body Weight Change + P0: Whole Body: Feed Consumption, Absolute)?
The NEL was 25 mg/kg-day.

What about the LOAEL (Mus musculus; [5]) of the same molecule?
The LOAEL was 120 mg/kg-day.

What about the NOAEL (Mus musculus; [5]) of the same molecule?
Its NOAEL is 25 mg/kg-day.

What about the LOAEL (Mus musculus; [6]) of the same molecule?
The LOAEL was 120 mg/kg-day.

And the NOAEL (Mus musculus; [6])?
Its NOAEL is 25 mg/kg-day.

And the NOAEL (Mus musculus; reproduction developmental, duration: 54 days, oral, gavage, F, CD1, generation: P0, P0: Reproductive: Whole Body: Fertility Index + P0: Reproductive: Whole Body: Gestation Index + P0: Reproductive: Whole Body: Percent Mating)?
Its NOAEL is 120 mg/kg-day.

What about the NOAEL (Mus musculus; reproduction developmental, duration: 54 days, oral, gavage, M/F, CD1, generation: F1, F1: Reproductive: Prepuce or Vagina: Preputial Separation or Vaginal Patency) of the same molecule?
The NOAEL was 120 mg/kg-day.

What about the LOAEL (Mus musculus; reproduction developmental, duration: 54 days, oral, gavage, M, CD1, generation: P0, P0: Reproductive: Whole Body: Fertility Index + P0: Reproductive: Whole Body: Percent Mating) of the same molecule?
Its LOAEL is 120 mg/kg-day.

What about the LEL (Mus musculus; [7]) of the same molecule?
The LEL was 100 mg/kg-day.

What about the NEL (Mus musculus; [7]) of the same molecule?
The NEL was 25 mg/kg-day.

And the NEL (Mus musculus; reproduction developmental, duration: 109 days, oral, gavage, M, Crl:CD-1 (ICR) BR, generation: P0, P0: Blood: Lymphocyte + P0: Blood: Monocytes + P0: Blood: Neutrophils + P0: Blood: Red Blood Cell (RBC) + P0: Blood: Reticulocytes + P0: …)?
Its NEL is 100 mg/kg-day.

And the LOAEL (Mus musculus; [8])?
Its LOAEL is 5 mg/kg-day.

What about the NOAEL (Mus musculus; [8]) of the same molecule?
Its NOAEL is 1 mg/kg-day.

And the LEL (Mus musculus; [9])?
Its LEL is 5 mg/kg-day.

What about the NEL (Mus musculus; [9]) of the same molecule?
Its NEL is 1 mg/kg-day.

And the NOAEL (Mus musculus; reproduction developmental, duration: 109 days, oral, gavage, M, Crl:CD-1 (ICR) BR, generation: P0, P0: Reproductive: Epididymis: Epididymis Weight, Absolute + P0: Reproductive: Epididymis: Epididymis Weight, Relative + P0: Reproductive: …)?
Its NOAEL is 100 mg/kg-day.

What about the NOAEL (Mus musculus; reproduction developmental, multiple, M, Crl:CD-1 (ICR) BR, generation: F1, F1: Reproductive: Prepuce: Preputial Separation) of the same molecule?
The NOAEL was 100 mg/kg-day.

What about the LOAEL (Mus musculus; [10]) of the same molecule?
The LOAEL was 5 mg/kg-day.

What about the NOAEL (Mus musculus; [10]) of the same molecule?
Its NOAEL is 1 mg/kg-day.

What about the LOAEL (Mus musculus; [11]) of the same molecule?
The LOAEL was 100 mg/kg-day.

What about the NOAEL (Mus musculus; [11]) of the same molecule?
The NOAEL was 25 mg/kg-day.

And the NEL (Mus musculus; reproduction developmental, oral, gavage, F, CD1, generation: P0, P0: Blood: Calcium (CA), Blood + P0: Blood: Chloride (CL), Blood + P0: Blood: Globulin (G), Blood + P0: Blood: Glucose (GLU), Blood + P0: …)?
The NEL was 100 mg/kg-day.

What about the LEL (Mus musculus; [12]) of the same molecule?
Its LEL is 100 mg/kg-day.

What about the NEL (Mus musculus; [12]) of the same molecule?
Its NEL is 25 mg/kg-day.

And the LEL (Mus musculus; [13])?
The LEL was 25 mg/kg-day.

And the NEL (Mus musculus; [13])?
Its NEL is 5 mg/kg-day.

What about the NEL (Mus musculus; reproduction developmental, oral, gavage, F, CD1, generation: P0, P0: Uterus: Implantation + P0: Whole Body: Fertility Index + P0: Whole Body: Gestation Index + P0: Whole Body: Male Pups per Pups Sexed + P0…) of the same molecule?
The NEL was 100 mg/kg-day.

What about the LOAEL (Mus musculus; [14]) of the same molecule?
Its LOAEL is 5 mg/kg-day.

And the NOAEL (Mus musculus; [14])?
Its NOAEL is 1 mg/kg-day.

And the NEL (Mus musculus; reproduction developmental, oral, gavage, M/F, CD1, generation: F1, F1: Whole Body: Live Pups Born + F1: Whole Body: Viability Index)?
Its NEL is 100 mg/kg-day.

And the NEL (Mus musculus; reproduction developmental, oral, gavage, M, CD1, generation: P0, P0: Blood: Calcium (CA), Blood + P0: Blood: Globulin (G) + P0: Blood: Glucose (GLU) + P0: Blood: Inorganic Phosphorous (PHOS) + P0: Blood: …)?
The NEL was 100 mg/kg-day.

What about the LEL (Mus musculus; [15]) of the same molecule?
The LEL was 100 mg/kg-day.

And the NEL (Mus musculus; [15])?
The NEL was 25 mg/kg-day.

And the NEL (Mus musculus; reproduction developmental, oral, gavage, M, CD1, generation: P0, P0: Whole Body: Fertility Index + P0: Whole Body: Percent Mating)?
The NEL was 100 mg/kg-day.

And the LOAEL (Rattus norvegicus)?
The LOAEL was 225 mg/kg-day.
